Measurements taken from PubChem BioAssay (NCI).
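Test compounds were applied to cells in 96-well plates for 48 hours at 5 doses. Definition used: TGI = concentration required for complete inhibition of growth.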

What was measured:
Experiment in all cases: DTP human tumour cell line panel, 48 h
[1] = test system: MALME-3M melanoma
[2] = test system: SNB-19 CNS
[3] = test system: CCRF-CEM leukemia
[4] = test system: U251 CNS
[5] = test system: K-562 leukemia
[6] = test system: NCI-H226 lung
[7] = test system: HCC-2998 colon
[8] = test system: HCT-15 colon
[9] = test system: KM12 colon
[10] = test system: SF-539 CNS
[11] = test system: RXF 393 renal
[12] = test system: LOX IMVI melanoma
[13] = test system: A549 NSCLC
[14] = test system: T-47D breast
[15] = test system: NCI-H522 lung
[16] = test system: NCI/ADR-RES ovarian
[17] = test system: TK-10 renal
[18] = test system: SK-MEL-5 melanoma
[19] = test system: SN12C renal
[20] = test system: MDA-MB-231 breast
[21] = test system: COLO 205 colon
[22] = test system: DU-145 prostate
[23] = test system: SF-295 CNS
[24] = test system: MOLT-4 leukemia
[25] = test system: MCF7 breast
[26] = test system: HOP-62 NSCLC
[27] = test system: NCI-H23 lung
[28] = test system: CAKI-1 renal
[29] = test system: SR leukemia
[30] = test system: SK-OV-3 ovarian
[31] = test system: HCT-116 colon
[32] = test system: A498 renal
[33] = test system: OVCAR-8 ovarian
[34] = test system: ACHN renal
[35] = test system: HOP-92 NSCLC
[36] = test system: UACC-257 melanoma
[37] = test system: HS 578T breast
[38] = test system: UO-31 renal
[39] = test system: MDA-MB-435
[40] = test system: UACC-62 melanoma
[41] = test system: NCI-H460 lung
[42] = test system: RPMI-8226 leukemia
[43] = test system: MDA-N
[44] = test system: OVCAR-3 ovarian
[45] = test system: SK-MEL-28 melanoma
[46] = test system: 786-0 renal
[47] = test system: SW-620 colon
[48] = test system: OVCAR-4 ovarian
[49] = test system: SK-MEL-2 melanoma
[50] = test system: BT-549 breast
[51] = test system: SF-268 CNS
[52] = test system: M14 melanoma
[53] = test system: IGROV1 ovarian
[54] = test system: OVCAR-5 ovarian
[55] = test system: PC-3 prostate
[56] = test system: SNB-75 CNS
[57] = test system: HT29 colon
[58] = test system: EKVX NSCLC

With `COc1ccc(N2C(=O)/C(=C\c3cc(OC)c(OC)c(OC)c3)S(=O)(=O)C2c2ccccc2)cc1` (stereo unspecified) the TGI [1] was greater than 100 µM, the TGI [2] was greater than 100 µM and the TGI [3] was greater than 100 µM. For the same molecule, the TGI [4] was greater than 100 µM, the TGI [5] was greater than 100 µM and the TGI [6] was greater than 100 µM. The TGI [7] was greater than 100 µM, the TGI [8] was greater than 100 µM and the TGI [9] was greater than 100 µM. The TGI [10] was greater than 100 µM, the TGI [11] was greater than 100 µM and the TGI [12] was greater than 100 µM. It also gave a TGI [13] greater than 100 µM, a TGI [14] greater than 100 µM and a TGI [15] greater than 100 µM. For the same molecule, the TGI [16] was 78.9 µM, the TGI [17] was greater than 100 µM and the TGI [18] was greater than 100 µM. It also gave a TGI [19] greater than 100 µM, a TGI [20] greater than 100 µM and a TGI [21] of 41.6 µM. It also gave a TGI [22] greater than 100 µM, a TGI [23] greater than 100 µM and a TGI [24] greater than 100 µM. It also gave a TGI [25] greater than 100 µM, a TGI [26] greater than 100 µM and a TGI [27] greater than 100 µM. It also gave a TGI [28] greater than 100 µM, a TGI [29] greater than 100 µM and a TGI [30] greater than 100 µM. For the same molecule, the TGI [31] was greater than 100 µM, the TGI [32] was greater than 100 µM and the TGI [33] was greater than 100 µM. The TGI [34] was greater than 100 µM, the TGI [35] was greater than 100 µM and the TGI [36] was greater than 100 µM. The TGI [37] was greater than 100 µM, the TGI [38] was greater than 100 µM and the TGI [39] was 72.3 µM. It also gave a TGI [40] greater than 100 µM, a TGI [41] greater than 100 µM and a TGI [42] greater than 100 µM. The TGI [43] was 40.8 µM, the TGI [44] was greater than 100 µM and the TGI [45] was greater than 100 µM. It also gave a TGI [46] greater than 100 µM, a TGI [47] greater than 100 µM and a TGI [48] greater than 100 µM. For the same molecule, the TGI [49] was 71.1 µM, the TGI [50] was greater than 100 µM and the TGI [51] was greater than 100 µM. It also gave a TGI [52] of 84.2 µM.

`Cc1ccnc2nc3[nH]c4ccccc4c3cc12` was tested, and the TGI [53] was greater than 100 µM, the TGI [3] was greater than 100 µM and the TGI [4] was greater than 100 µM. For the same molecule, the TGI [5] was greater than 100 µM, the TGI [54] was greater than 100 µM and the TGI [6] was greater than 100 µM. The TGI [55] was greater than 100 µM, the TGI [7] was greater than 100 µM and the TGI [8] was greater than 100 µM. For the same molecule, the TGI [9] was greater than 100 µM, the TGI [10] was greater than 100 µM and the TGI [11] was greater than 100 µM. The TGI [12] was greater than 100 µM, the TGI [13] was greater than 100 µM and the TGI [14] was greater than 100 µM. It also gave a TGI [15] greater than 100 µM, a TGI [16] greater than 100 µM and a TGI [17] greater than 100 µM. It also gave a TGI [18] greater than 100 µM, a TGI [19] greater than 100 µM and a TGI [20] greater than 100 µM. It also gave a TGI [21] greater than 100 µM, a TGI [22] greater than 100 µM and a TGI [23] greater than 100 µM. For the same molecule, the TGI [24] was greater than 100 µM, the TGI [25] was greater than 100 µM and the TGI [26] was greater than 100 µM. For the same molecule, the TGI [27] was greater than 100 µM, the TGI [28] was greater than 100 µM and the TGI [29] was greater than 100 µM. The TGI [31] was greater than 100 µM, the TGI [32] was greater than 100 µM and the TGI [33] was greater than 100 µM. For the same molecule, the TGI [34] was greater than 100 µM, the TGI [35] was greater than 100 µM and the TGI [36] was greater than 100 µM. For the same molecule, the TGI [56] was 85.8 µM, the TGI [37] was greater than 100 µM and the TGI [57] was greater than 100 µM. The TGI [38] was greater than 100 µM, the TGI [39] was greater than 100 µM and the TGI [58] was greater than 100 µM. The TGI [40] was greater than 100 µM, the TGI [41] was greater than 100 µM and the TGI [42] was greater than 100 µM. It also gave a TGI [43] greater than 100 µM, a TGI [44] greater than 100 µM and a TGI [46] of 83.7 µM. It also gave a TGI [47] greater than 100 µM, a TGI [48] greater than 100 µM and a TGI [49] greater than 100 µM. It also gave a TGI [50] greater than 100 µM, a TGI [51] greater than 100 µM and a TGI [52] greater than 100 µM.
